Measured values as given in US20060069132A1, “Azolecarboxamide herbicides” (priority 2004, published 2006).

Legend:
[1] = system: common (oilseed) sunflower; assay: Test C pre-/postemergence herbicide test; type: in vivo, Helianthus annuus; details: preemergence; for Plant response rating (0 = no effect, 100 = complete control), Sunflower: 125 g ai/ha
Method in brief: (§1)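 Visual injury scores run from 0 (no effect) to 100 (complete control), assessed relative to untreated controls 12 to 14 days after treatment in the greenhouse. Chemicals were formulated in a non-phytotoxic solvent mixture with surfactant and applied to soil after planting or to emerged plants at the 1- to 4-leaf stage.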

bermudagrass = assay: Test C pre-/postemergence herbicide test; type: in vivo, Cynodon dactylon; details: preemergence; for Plant response rating (0 = no effect, 100 = complete control), Bermudagrass: 125 g ai/ha
Method in brief: as §1

barnyardgrass = assay: Test C flooded paddy test; type: in vivo, Echinochloa crus-galli; details: for Plant response rating, Barnyardgrass: 500 g ai/ha, visual rating after 12 to 14 days
Method in brief: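 Postemergence sprays applied to plants 2 to 18 cm tall (1- to 4-leaf stage); paddy species grown to 2-leaf stage under flooding. After 12 to 14 days in greenhouse, visual rating versus untreated controls on 0–100 scale (0 no effect, 100 complete control).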

pigweed = assay: Test C pre-/postemergence herbicide test; type: in vivo, Amaranthus retroflexus; details: preemergence; for Plant response rating (0 = no effect, 100 = complete control), Pigweed: 125 g ai/ha
Method in brief: as §1

giant foxtail = assay: Test C pre-/postemergence herbicide test; type: in vivo, Setaria faberi; details: preemergence; for Plant response rating (0 = no effect, 100 = complete control), Foxtail, Giant: 125 g ai/ha
Method in brief: as §1

morningglory = assay: Test C pre-/postemergence herbicide test; type: in vivo, Ipomoea coccinea; design: key to Plant response rating, Morningglory: 0 = no effect, 100 = complete control; details: preemergence; for Plant response rating (0 = no effect, 100 = complete control), Morningglory: 125 g ai/ha
Method in brief: as §1

cocklebur = assay: Test C pre-/postemergence herbicide test; type: in vivo, Xanthium strumarium; details: preemergence; for Plant response rating (0 = no effect, 100 = complete control), Cocklebur: 125 g ai/ha
Method in brief: as §1

soybean = assay: Test C pre-/postemergence herbicide test; type: in vivo, Glycine max; details: preemergence; for Plant response rating (0 = no effect, 100 = complete control), Soybean: 125 g ai/ha
Method in brief: as §1

velvetleaf = assay: Test C pre-/postemergence herbicide test; type: in vivo, Abutilon theophrasti; details: preemergence; for Plant response rating (0 = no effect, 100 = complete control), Velvetleaf: 125 g ai/ha
Method in brief: as §1

yellow nutsedge = assay: Test C pre-/postemergence herbicide test; type: in vivo, Cyperus esculentus; details: preemergence; for Plant response rating (0 = no effect, 100 = complete control), Nutsedge, Yellow: 125 g ai/ha
Method in brief: as §1

[2] = system: smallflower umbrella sedge; assay: Test C flooded paddy test; type: in vivo, Cyperus difformis; details: for Plant response rating, Sedge, Umbrella: 500 g ai/ha, visual rating after 12 to 14 days
[3] = 500 g ai/ha, scale 0 to 100 (0 no effect, 100 complete control), visual, 12 to 14 days
[4] = 62 g ai/ha, scale 0 to 100, 0 no effect, 100 complete control
[5] = 62 g ai/ha, scale 0 to 100 (0 no effect, 100 complete control)
[6] = 125 g ai/ha, scale 0 to 100 (0 no effect, 100 complete control)
[7] = 250 g ai/ha, scale of 0 to 100, 0 is no effect, 100 is complete control
[8] = scale 0 to 100 (0 no effect, 100 complete control)

CCC1=NN(C(C)(C)C)CC1C(=O)Nc1cc(C(=O)N2CC=CC2)ccc1F (racemic) [Compound 340]
Plant response rating, Sunflower ([1]; 62 g ai/ha, scale 0 to 100): 0 | Plant response rating (0 = no effect, 100 = complete control), Sunflower [1]: 0 | Plant response rating, Sunflower ([1]; 250 g ai/ha, scale 0-100): 0 | Plant response rating, Sunflower [1, 3]: 5 | Plant response rating, Bermudagrass (bermudagrass; [4]): 20 | Plant response rating (0 = no effect, 100 = complete control), Bermudagrass (bermudagrass): 70 | Plant response rating, Bermudagrass (bermudagrass; 250 g ai/ha, scale 0-100): 85 | Plant response rating, Bermudagrass (bermudagrass; [3]): 100 | Barnyardgrass plant response rating (barnyardgrass; [5]): 20 | Barnyardgrass plant response rating (barnyardgrass; [6]): 50 | Barnyardgrass plant response rating (barnyardgrass; [7]): 60 | Plant response rating, Barnyardgrass (barnyardgrass; [8]): 70 | Plant response rating, Pigweed (pigweed; 62 g ai/ha, scale 0 to 100): 70 | Plant response rating (0 = no effect, 100 = complete control), Pigweed (pigweed): 85 | Plant response rating, Pigweed (pigweed; 250 g ai/ha, scale 0-100): 100 | Plant response rating, Pigweed (pigweed; [3]): 100 | Plant response rating, Foxtail, Giant (giant foxtail; 62 g ai/ha, scale 0 to 100): 0 | Plant response rating (0 = no effect, 100 = complete control), Foxtail, Giant (giant foxtail): 10 | Plant response rating, Foxtail, Giant (giant foxtail; 250 g ai/ha, scale 0-100): 60 | Plant response rating, Foxtail, Giant (giant foxtail; [3]): 85 | Plant response rating, Morningglory (morningglory; 62 g ai/ha, scale 0 to 100): 0 | Plant response rating (0 = no effect, 100 = complete control), Morningglory (morningglory): 5 | Plant response rating, Morningglory (morningglory; 250 g ai/ha, scale 0-100): 10 | Plant response rating, Morningglory (morningglory; [3]): 50 | Plant response rating, Cocklebur (cocklebur; 62 g ai/ha, scale 0 to 100): 0 | Plant response rating (0 = no effect, 100 = complete control), Cocklebur (cocklebur): 0 | Plant response rating, Cocklebur (cocklebur; 250 g ai/ha, scale 0-100): 0 | Plant response rating, Cocklebur (cocklebur; [3]): 40 | Plant response rating, Soybean (soybean; 62 g ai/ha, scale 0 to 100): 0 | Plant response rating (0 = no effect, 100 = complete control), Soybean (soybean): 0 | Plant response rating, Soybean (soybean; 250 g ai/ha, scale 0-100): 0 | Plant response rating, Soybean (soybean; [3]): 10 | Plant response rating, Velvetleaf (velvetleaf; 62 g ai/ha, scale 0 to 100): 0 | Plant response rating (0 = no effect, 100 = complete control), Velvetleaf (velvetleaf): 60 | Plant response rating, Velvetleaf (velvetleaf; 250 g ai/ha, scale 0-100): 95 | Plant response rating, Velvetleaf (velvetleaf; [3]): 100 | Plant response rating, Nutsedge, Yellow (yellow nutsedge; 62 g ai/ha, scale 0 to 100): 0 | Plant response rating (0 = no effect, 100 = complete control), Nutsedge, Yellow (yellow nutsedge): 0 | Plant response rating, Nutsedge, Yellow (yellow nutsedge; 250 g ai/ha, scale 0-100): 0 | Plant response rating, Nutsedge, Yellow (yellow nutsedge; [3]): 60 | Sedge, Umbrella plant response rating ([2]; 62 g ai/ha, scale 0 to 100): 50 | Sedge, Umbrella plant response rating [2, 6]: 70 | Sedge, Umbrella plant response rating [2, 7]: 70 | Plant response rating, Sedge, Umbrella [2, 8]: 90

CCC1=NN(C(C)(C)C)CC1C(=O)Nc1cc(C(=O)N2CCCC2)ccc1F (racemic) [Compound 341]
Plant response rating, Sunflower ([1]; 62 g ai/ha, scale 0 to 100): 0 | Plant response rating (0 = no effect, 100 = complete control), Sunflower [1]: 0 | Plant response rating, Sunflower ([1]; 250 g ai/ha, scale 0-100): 50 | Plant response rating, Sunflower [1, 3]: 100 | Plant response rating, Bermudagrass (bermudagrass; [4]): 80 | Plant response rating (0 = no effect, 100 = complete control), Bermudagrass (bermudagrass): 80 | Plant response rating, Bermudagrass (bermudagrass; 250 g ai/ha, scale 0-100): 100 | Plant response rating, Bermudagrass (bermudagrass; [3]): 100 | Barnyardgrass plant response rating (barnyardgrass; [5]): 30 | Barnyardgrass plant response rating (barnyardgrass; [6]): 30 | Barnyardgrass plant response rating (barnyardgrass; [7]): 50 | Plant response rating, Barnyardgrass (barnyardgrass; [8]): 60 | Plant response rating, Pigweed (pigweed; 62 g ai/ha, scale 0 to 100): 95 | Plant response rating (0 = no effect, 100 = complete control), Pigweed (pigweed): 95 | Plant response rating, Pigweed (pigweed; 250 g ai/ha, scale 0-100): 100 | Plant response rating, Pigweed (pigweed; [3]): 100 | Plant response rating, Foxtail, Giant (giant foxtail; 62 g ai/ha, scale 0 to 100): 0 | Plant response rating (0 = no effect, 100 = complete control), Foxtail, Giant (giant foxtail): 50 | Plant response rating, Foxtail, Giant (giant foxtail; 250 g ai/ha, scale 0-100): 55 | Plant response rating, Foxtail, Giant (giant foxtail; [3]): 80 | Plant response rating, Morningglory (morningglory; 62 g ai/ha, scale 0 to 100): 0 | Plant response rating (0 = no effect, 100 = complete control), Morningglory (morningglory): 5 | Plant response rating, Morningglory (morningglory; 250 g ai/ha, scale 0-100): 5 | Plant response rating, Morningglory (morningglory; [3]): 50 | Plant response rating, Cocklebur (cocklebur; 62 g ai/ha, scale 0 to 100): 0 | Plant response rating (0 = no effect, 100 = complete control), Cocklebur (cocklebur): 10 | Plant response rating, Cocklebur (cocklebur; 250 g ai/ha, scale 0-100): 50 | Plant response rating, Cocklebur (cocklebur; [3]): 100 | Plant response rating, Soybean (soybean; 62 g ai/ha, scale 0 to 100): 0 | Plant response rating (0 = no effect, 100 = complete control), Soybean (soybean): 20 | Plant response rating, Soybean (soybean; 250 g ai/ha, scale 0-100): 70 | Plant response rating, Soybean (soybean; [3]): 100 | Plant response rating, Velvetleaf (velvetleaf; 62 g ai/ha, scale 0 to 100): 30 | Plant response rating (0 = no effect, 100 = complete control), Velvetleaf (velvetleaf): 60 | Plant response rating, Velvetleaf (velvetleaf; 250 g ai/ha, scale 0-100): 100 | Plant response rating, Velvetleaf (velvetleaf; [3]): 100 | Plant response rating, Nutsedge, Yellow (yellow nutsedge; 62 g ai/ha, scale 0 to 100): 0 | Plant response rating (0 = no effect, 100 = complete control), Nutsedge, Yellow (yellow nutsedge): 0 | Plant response rating, Nutsedge, Yellow (yellow nutsedge; 250 g ai/ha, scale 0-100): 30 | Plant response rating, Nutsedge, Yellow (yellow nutsedge; [3]): 60 | Sedge, Umbrella plant response rating ([2]; 62 g ai/ha, scale 0 to 100): 20 | Sedge, Umbrella plant response rating [2, 6]: 50 | Sedge, Umbrella plant response rating [2, 7]: 60 | Plant response rating, Sedge, Umbrella [2, 8]: 60
